System: participants with cocaine use disorder
Assay: Medical safety session: cardiovascular measures after intranasal cocaine
Format: in vivo, human
Method: Participants completed one, single-blind medical safety session to ensure they could tolerate intranasal cocaine. Intranasal cocaine doses (i.e., 0 [placebo], 10, 20, 40 and 80 mg) were administered in ascending order. Placebo (i.e., 0 mg) was administered at 0900 hours. The subjective-effect questionnaires and cardiovascular measures described below were completed 30 minutes before placebo administration (i.e., 0830 hours), immediately following and at 15-minute intervals for 45 minutes. Subsequent cocaine administrations were separated by 45 minutes.

[1] = Cocaine 10 mg, Topiramate (0 mg/day) group
[2] = Cocaine 10 mg, Topiramate (50 mg/day) group
[3] = Cocaine 10 mg, Topiramate (100 mg/day) group
[4] = Cocaine 20 mg, Topiramate (0 mg/day) group
[5] = Cocaine 20 mg, Topiramate (50 mg/day) group
[6] = Cocaine 20 mg, Topiramate (100 mg/day) group
[7] = Cocaine 40 mg, Topiramate (0 mg/day) group
[8] = Cocaine 40 mg, Topiramate (50 mg/day) group
[9] = Cocaine 40 mg, Topiramate (100 mg/day) group
[10] = Cocaine 80 mg, Topiramate (0 mg/day) group
[11] = Cocaine 80 mg, Topiramate (50 mg/day) group
[12] = Cocaine 80 mg, Topiramate (100 mg/day) group

COC(=O)[C@H]1[C@@H](OC(=O)c2ccccc2)C[C@@H]2CC[C@H]1N2C [Cocaine, cocaine]
Vitals Diastolic Pressure, mean peak effect [1]: 77.2 | Vitals Heart Rate, mean peak effect [1]: 70.9 | Vitals Systolic Pressure, mean peak effect [1]: 121.1 | Vitals Diastolic Pressure, mean peak effect [2]: 84.8 | Vitals Heart Rate, mean peak effect [2]: 67.4 | Vitals Systolic Pressure, mean peak effect [2]: 123.9 | Vitals Diastolic Pressure, mean peak effect [3]: 82.6 | Vitals Heart Rate, mean peak effect [3]: 66.7 | Vitals Systolic Pressure, mean peak effect [3]: 125.1 | Vitals Diastolic Pressure, mean peak effect [4]: 81.5 | Vitals Heart Rate, mean peak effect [4]: 77.9 | Vitals Systolic Pressure, mean peak effect [4]: 125.3 | Vitals Diastolic Pressure, mean peak effect [5]: 84.1 | Vitals Heart Rate, mean peak effect [5]: 66.6 | Vitals Systolic Pressure, mean peak effect [5]: 131.8 | Vitals Diastolic Pressure, mean peak effect [6]: 82.3 | Vitals Heart Rate, mean peak effect [6]: 64.6 | Vitals Systolic Pressure, mean peak effect [6]: 128.3 | Vitals Diastolic Pressure, mean peak effect [7]: 81.6 | Vitals Heart Rate, mean peak effect [7]: 74.8 | Vitals Systolic Pressure, mean peak effect [7]: 124.9 | Vitals Diastolic Pressure, mean peak effect [8]: 82.4 | Vitals Heart Rate, mean peak effect [8]: 70.8 | Vitals Systolic Pressure, mean peak effect [8]: 129.9 | Vitals Diastolic Pressure, mean peak effect [9]: 86.5 | Vitals Heart Rate, mean peak effect [9]: 67.8 | Vitals Systolic Pressure, mean peak effect [9]: 131.7 | Vitals Diastolic Pressure, mean peak effect [10]: 85.9 | Vitals Heart Rate, mean peak effect [10]: 85.8 | Vitals Systolic Pressure, mean peak effect [10]: 130.5 | Vitals Diastolic Pressure, mean peak effect [11]: 84.8 | Vitals Heart Rate, mean peak effect [11]: 78.0 | Vitals Systolic Pressure, mean peak effect [11]: 133.8 | Vitals Diastolic Pressure, mean peak effect [12]: 88.3 | Vitals Heart Rate, mean peak effect [12]: 77.6 | Vitals Systolic Pressure, mean peak effect [12]: 137.4 | heart rate or blood pressure (cocaine 20, 40 or 80 mg above placebo levels in at least one of the topiramate groups, medical safety session): significantly increased

From patent US20220370406A1, “METHOD OF TREATING STIMULANT USE DISORDER USING A COMBINATION OF TOPIRAMATE AND PHENTERMINE” (University of Kentucky Research Foundation, priority 2019, published 2022)
